According to patent US20090311217A1, “3-SUBSTITUTED-1H-INDOLE COMPOUNDS, THEIR USE AS MTOR KINASE AND PI3 KINASE INHIBITORS, AND THEIR SYNTHESES” (priority 2008, published 2009):
Where two headings read alike, the source gives them in different places.

Experiments:
PI3K-alpha = PI3K-alpha (Homo sapiens, UniProt P42336); experiment: PI3K-alpha fluorescence polarization assay; type: biochemical; conditions: read-out: PI3Kα Avg. IC50
PI3K-gamma = PI3K-gamma (Homo sapiens, UniProt P48736); experiment: PI3K-gamma fluorescence polarization assay; type: biochemical
Method: PI3K-Alpha, PI3K-Beta, PI3K-Gamma, and PI3K-delta Fluorescence Polarization Assay Protocols
PI3-Kinase reactions were performed in 5 mM HEPES, pH 7, 2.5 mM MgCl2, and 25 μM ATP, with diC8-PI(4,5)P2 (Echelon, Salt Lake City Utah) as substrate. Nunc 384-well black polypropylene fluorescent plates were used for PI3K assays. Reactions were quenched by the addition of EDTA to a final concentration of 10 mM. Final reaction volumes were 10 μl. For evaluation of PI3K inhibitors, 5 ng of enzyme (PI3K-alpha, beta, gamma, or delta) and 2.5 μM of substrate was used per […] reaction volume, and inhibitor concentrations ranged from 100 μM to 20 μM; the final level of DMSO in reactions never exceeded 2%. Reactions were allowed to proceed for one hour at 25° C. After 1 hour, GST-tagged GRP1 (general receptor for phosphoinositides) PH domain fusion protein was added to a final concentration of 100 nM, and BODIPY-TMRI(1,3,4,5)P4 (Echelon) was also added to a final concentration of 5 nM. Final sample volumes were 25 μl with a final DMSO concentration of 0.8%. Assay Plates were read on Perkin-Elmer Envision plate readers with appropriate filters for Tamra [BODIPY-TMRI(1,3,4,5)P4]. Data obtained were used to calculate enzymatic activity and enzyme inhibition by inhibitor compounds.

Sequence of PI3K-alpha (P42336 whole entry, species assumed): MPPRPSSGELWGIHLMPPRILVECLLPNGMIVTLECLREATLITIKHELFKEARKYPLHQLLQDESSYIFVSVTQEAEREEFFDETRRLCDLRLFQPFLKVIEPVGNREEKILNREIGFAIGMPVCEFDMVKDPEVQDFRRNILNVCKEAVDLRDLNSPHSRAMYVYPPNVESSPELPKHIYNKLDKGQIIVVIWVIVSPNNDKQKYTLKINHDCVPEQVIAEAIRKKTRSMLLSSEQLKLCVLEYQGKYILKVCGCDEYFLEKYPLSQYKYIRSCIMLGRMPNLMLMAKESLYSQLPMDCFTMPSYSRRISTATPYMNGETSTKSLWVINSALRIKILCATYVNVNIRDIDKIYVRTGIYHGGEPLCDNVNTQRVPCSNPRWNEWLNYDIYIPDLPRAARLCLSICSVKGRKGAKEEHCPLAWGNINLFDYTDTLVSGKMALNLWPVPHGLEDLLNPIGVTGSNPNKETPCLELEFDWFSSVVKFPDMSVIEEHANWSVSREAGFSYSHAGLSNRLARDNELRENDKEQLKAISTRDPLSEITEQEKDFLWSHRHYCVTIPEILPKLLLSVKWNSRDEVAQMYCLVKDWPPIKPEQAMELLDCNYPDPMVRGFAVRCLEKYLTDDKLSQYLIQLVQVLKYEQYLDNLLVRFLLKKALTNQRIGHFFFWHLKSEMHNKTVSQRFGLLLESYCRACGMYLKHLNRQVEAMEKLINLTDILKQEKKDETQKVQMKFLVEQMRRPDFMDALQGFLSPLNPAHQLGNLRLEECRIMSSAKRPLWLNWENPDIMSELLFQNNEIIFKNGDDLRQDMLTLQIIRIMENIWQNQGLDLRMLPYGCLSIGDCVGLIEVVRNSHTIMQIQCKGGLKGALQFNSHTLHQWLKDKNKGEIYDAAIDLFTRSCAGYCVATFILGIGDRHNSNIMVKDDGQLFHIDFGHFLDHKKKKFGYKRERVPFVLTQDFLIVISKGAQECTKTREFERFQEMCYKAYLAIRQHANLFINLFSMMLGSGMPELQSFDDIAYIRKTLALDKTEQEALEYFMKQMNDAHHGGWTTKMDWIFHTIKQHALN
Sequence of PI3K-alpha (P27986 whole entry partner, species assumed): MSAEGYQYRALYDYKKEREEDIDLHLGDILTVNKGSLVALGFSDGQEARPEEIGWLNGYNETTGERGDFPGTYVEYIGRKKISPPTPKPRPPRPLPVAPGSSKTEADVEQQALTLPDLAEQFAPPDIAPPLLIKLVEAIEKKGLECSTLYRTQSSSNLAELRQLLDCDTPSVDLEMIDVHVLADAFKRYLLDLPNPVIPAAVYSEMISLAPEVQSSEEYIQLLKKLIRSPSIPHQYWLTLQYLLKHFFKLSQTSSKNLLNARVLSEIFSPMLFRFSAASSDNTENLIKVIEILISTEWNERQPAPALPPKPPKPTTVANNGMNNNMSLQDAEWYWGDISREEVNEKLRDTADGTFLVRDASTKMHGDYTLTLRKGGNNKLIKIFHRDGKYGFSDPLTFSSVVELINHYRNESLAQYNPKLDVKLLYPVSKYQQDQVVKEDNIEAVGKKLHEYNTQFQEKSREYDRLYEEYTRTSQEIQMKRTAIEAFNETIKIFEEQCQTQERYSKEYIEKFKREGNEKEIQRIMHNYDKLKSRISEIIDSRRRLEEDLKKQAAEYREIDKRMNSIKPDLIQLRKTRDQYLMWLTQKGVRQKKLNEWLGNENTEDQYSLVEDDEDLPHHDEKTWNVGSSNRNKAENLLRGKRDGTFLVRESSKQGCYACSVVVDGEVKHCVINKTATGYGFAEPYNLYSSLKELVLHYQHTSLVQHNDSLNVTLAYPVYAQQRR
Sequence of PI3K-gamma (P48736 whole entry, species assumed): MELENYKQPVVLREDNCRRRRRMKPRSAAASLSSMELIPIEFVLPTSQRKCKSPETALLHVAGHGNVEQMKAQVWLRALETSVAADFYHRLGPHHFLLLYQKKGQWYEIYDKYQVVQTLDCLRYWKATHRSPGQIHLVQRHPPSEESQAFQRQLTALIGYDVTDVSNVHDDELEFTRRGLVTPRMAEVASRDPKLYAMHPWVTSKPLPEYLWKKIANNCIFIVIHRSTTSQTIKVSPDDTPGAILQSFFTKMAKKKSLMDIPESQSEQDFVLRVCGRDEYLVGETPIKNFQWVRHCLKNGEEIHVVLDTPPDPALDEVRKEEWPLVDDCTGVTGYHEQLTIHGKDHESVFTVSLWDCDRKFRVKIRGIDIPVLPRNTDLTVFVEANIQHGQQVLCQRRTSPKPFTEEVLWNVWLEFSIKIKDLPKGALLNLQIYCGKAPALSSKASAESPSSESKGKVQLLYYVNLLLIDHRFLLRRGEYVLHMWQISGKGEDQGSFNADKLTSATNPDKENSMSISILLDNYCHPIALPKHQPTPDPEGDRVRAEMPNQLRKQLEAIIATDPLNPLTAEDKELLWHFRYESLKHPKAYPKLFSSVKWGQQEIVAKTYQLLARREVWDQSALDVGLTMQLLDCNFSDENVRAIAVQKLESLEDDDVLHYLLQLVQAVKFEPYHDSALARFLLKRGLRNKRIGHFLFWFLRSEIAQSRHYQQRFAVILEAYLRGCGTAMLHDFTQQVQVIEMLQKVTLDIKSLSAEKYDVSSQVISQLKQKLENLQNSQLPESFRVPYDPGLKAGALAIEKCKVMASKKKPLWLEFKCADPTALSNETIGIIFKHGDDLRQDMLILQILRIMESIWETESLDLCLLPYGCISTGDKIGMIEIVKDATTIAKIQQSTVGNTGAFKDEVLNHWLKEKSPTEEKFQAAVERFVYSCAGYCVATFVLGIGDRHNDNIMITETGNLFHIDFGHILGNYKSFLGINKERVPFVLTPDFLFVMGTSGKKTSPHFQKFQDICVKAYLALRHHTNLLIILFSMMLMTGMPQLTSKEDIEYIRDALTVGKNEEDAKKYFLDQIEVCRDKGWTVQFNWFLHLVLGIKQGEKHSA

IC50 (PI3K-alpha) [nM]	IC50 (PI3K-gamma; PI3Kγ Avg. IC50) [nM]	Molecule	IC50 (PI3K-gamma; read-out: PI3Kγ Avg. IC50) [nM]
62.5	139	CCc1cc(OC)cc2c(C=C3Oc4cc(O)cc(O)c4C3=O)cn(CCCC#N)c12 [Compound 471, 4-{3-[(4,6-dihydroxy-3-oxo-1-benzofuran-2(3H)-ylidene)methyl]-7-ethyl-5-methoxy-1H-indol-1-yl}butanenitrile]	
246	1390	CCc1cc(OC)cc2c(/C=C3\Oc4cc(O)ccc4C3=O)cn(CCCC#N)c12 [Compound 474, 4-{7-ethyl-3-[(Z)-(6-hydroxy-3-oxo-1-benzofuran-2(3H)-ylidene)methyl]-5-methoxy-1H-indol-1-yl}butanenitrile]	
> 10000	> 10000	CCc1cc(OC)cc2c(/C=C3\Oc4cccc(O)c4C3=O)cn(CCCC#N)c12 [Compound 475, 4-{7-ethyl-3-[(Z)-(4-hydroxy-3-oxo-1-benzofuran-2(3H)-ylidene)methyl]-5-methoxy-1H-indol-1-yl}butanenitrile]	
412	1640	Cc1cccc2c1c(/C=C1\Oc3cc(O)cc(O)c3C1=O)c(-c1ccccc1)n2C [Compound 476, (2Z)-2-[(1,4-dimethyl-2-phenyl-1H-indol-3-yl)methylene]-4,6-dihydroxy-1-benzofuran-3(2H)-one]	
81.5	3510	COc1cc(-c2cccnc2)c2[nH]cc(/C=C3\Oc4cc(O)ccc4C3=O)c2c1 [Compound 480, (2Z)-6-hydroxy-2-[(5-methoxy-7-pyridin-3-yl-1H-indol-3-yl)methylene]-1-benzofuran-3(2H)-one]	
	6950	Cn1cc(/C=C2\Oc3cc(O)cc(O)c3C2=O)c2ccccc21 [Example 16, (2Z)-4,6-dihydroxy-2-[(1-methyl-1H-indol-3-yl)methylene]-1-benzofuran-3(2H)-one]	
10700		Cc1ccc2c(c1)C(=O)/C(=C/c1c[nH]c3ccccc13)S2 [Example 289, (2Z)-2-(1H-indol-3-ylmethylene)-5-methyl-1-benzothiophen-3(2H)-one]	
9170		Cc1ccc2c(c1)C(=O)/C(=C/c1c(-c3ccccc3)[nH]c3ccccc13)S2 [Example 290, (2Z)-5-methyl-2-[(2-phenyl-1H-indol-3-yl)methylene]-1-benzothiophen-3(2H)-one]	
> 10000		Cc1ccc2c(c1)C(=O)/C(=C/c1c(-c3ccc(Cl)cc3)[nH]c3ccccc13)S2 [Example 291, (2Z)-2-{[2-(4-chlorophenyl)-1H-indol-3-yl]methylene}-5-methyl-1-benzothiophen-3(2H)-one]	
> 10000		Cc1ccc2c(c1)C(=O)/C(=C/c1c[nH]c3cc(C)ccc13)S2 [Example 292, (2Z)-5-methyl-2-[(6-methyl-1H-indol-3-yl)methylene]-1-benzothiophen-3(2H)-one]	
> 10000		Cc1ccc2c(c1)C(=O)/C(=C/c1c[nH]c3ccc(Br)cc13)S2 [Example 294, (2Z)-2-[(5-bromo-1H-indol-3-yl)methylene]-5-methyl-1-benzothiophen-3(2H)-one]	
> 10000		Cc1ccc2c(c1)C(=O)/C(=C/c1c[nH]c3ccc(OCc4ccccc4)cc13)S2 [Example 295, (2Z)-2-{[5-(benzyloxy)-1H-indol-3-yl]methylene}-5-methyl-1-benzothiophen-3(2H)-one]	
12000		Cc1ccc2c(c1)C(=O)C(=Cc1c(-c3ccc4ccccc4c3)[nH]c3ccccc13)S2 [Example 296, 5-methyl-2-{[2-(2-naphthyl)-1H-indol-3-yl]methylene}-1-benzothiophen-3(2H)-one]	
9190		Cc1ccc2c(c1)C(=O)C(=Cc1c(C)[nH]c3ccc([N+](=O)[O-])cc13)S2 [Example 298, 5-methyl-2-[(2-methyl-5-nitro-1H-indol-3-yl)methylene]-1-benzothiophen-3(2H)-one]	
> 10000		Cc1ccc2c(c1)C(=O)C(=Cc1cn(C)c3ccccc13)S2 [Example 299, 5-methyl-2-[(1-methyl-1H-indol-3-yl)methylene]-1-benzothiophen-3(2H)-one]	

Continued, molecule first:

Molecule	IC50 (PI3K-alpha) [nM]	IC50 (PI3K-gamma; PI3Kγ Avg. IC50) [nM]	IC50 (PI3K-gamma; read-out: PI3Kγ Avg. IC50) [nM]
4-hydroxy-2-({5-methoxy-2-methyl-1-[2-(4-methylpiperazin-1-yl)ethyl]-1H-indol-3-yl}methylene)-1-benzofuran-3(2H)-one [Example 129]	488		4500
4-hydroxy-2-[(1-{2-[4-(2-hydroxyethyl)piperazin-1-yl]ethyl}-5-methoxy-2-methyl-1H-indol-3-yl)methylene]-1-benzofuran-3(2H)-one [Example 131]	478		3970
4-hydroxy-2-{[5-methoxy-2-methyl-1-(2-morpholin-4-ylethyl)-1H-indol-3-yl]methylene}-1-benzofuran-3(2H)-one [Example 130]	650		4140
6,7-dihydroxy-2-({5-methoxy-2-methyl-1-[4-(4-methylpiperazin-1-yl)butyl]-1H-indol-3-yl}methylene)-1-benzofuran-3(2H)-one [Example 132]	337		4150
6,7-dihydroxy-2-[(1-{4-[4-(2-hydroxyethyl)piperazin-1-yl]butyl}-5-methoxy-2-methyl-1H-indol-3-yl)methylene]-1-benzofuran-3(2H)-one [Example 134]	204		3170
6,7-dihydroxy-2-{[5-methoxy-2-methyl-1-(4-morpholin-4-ylbutyl)-1H-indol-3-yl]methylene}-1-benzofuran-3(2H)-one [Example 133]	230		954
Cn1cc(C=C2Oc3cc(O)cc(O)c3C2=O)c2c(-c3ccccc3)cccc21 (single isomer, unassigned) [Compound 544, (2E)-4,6-dihydroxy-2-[(1-methyl-4-phenyl-1H-indol-3-yl)methylene]-1-benzofuran-3(2H)-one-(2Z)-4,6-dihydroxy-2-[(1-methyl-4-phenyl-1H-indol-3-yl)methylene]-1-benzofuran-3(2H)-one (1:1)]	266	2150	
COc1ccc2[nH]cc(/C=C3\Oc4cc(O)cc(OC)c4C3=O)c2c1 [Compound 472, (2Z)-6-hydroxy-4-methoxy-2-[(5-methoxy-1H-indol-3-yl)methylene]-1-benzofuran-3(2H)-one]	163	1130	
CCc1cc(OC)cc2c(/C=C3\Oc4cc(O)ccc4C3=O)cn(CCN3CCN(C)CC3)c12 [Compound 473, (2Z)-2-({7-ethyl-5-methoxy-1-[2-(4-methylpiperazin-1-yl)ethyl]-1H-indol-3-yl}methylene)-6-hydroxy-1-benzofuran-3(2H)-one]	162	2610	
O=C1/C(=C/c2cn(CCO)c3cccc(-c4ccccc4)c23)Oc2cc(O)cc(O)c21 [Compound 478, (2Z)-4,6-dihydroxy-2-{[1-(2-hydroxyethyl)-4-phenyl-1H-indol-3-yl]methylene}-1-benzofuran-3(2H)-one]	1200	1740	
COc1cc(-c2ccncc2)c2[nH]cc(/C=C3\Oc4cc(O)ccc4C3=O)c2c1 [Compound 479, (2Z)-6-hydroxy-2-[(5-methoxy-7-pyridin-4-yl-1H-indol-3-yl)methylene]-1-benzofuran-3(2H)-one]	298	> 10000	
COc1cccc2c1O/C(=C\c1c[nH]c3ccc(Br)cc13)C2=O [Compound 481, (2Z)-2-[(5-bromo-1H-indol-3-yl)methylene]-7-methoxy-1-benzofuran-3(2H)-one]	> 10000	> 10000	
COc1ccc2[nH]cc(C=C3Oc4c(O)cccc4C3=O)c2c1 [Compound 482, 7-hydroxy-2-[(5-methoxy-1H-indol-3-yl)methylene]-1-benzofuran-3(2H)-one]	> 10000	> 10000	
COc1ccc2[nH]cc(C=C3Oc4c(OC)cccc4C3=O)c2c1 [Compound 483, 7-methoxy-2-[(5-methoxy-1H-indol-3-yl)methylene]-1-benzofuran-3(2H)-one]	9860	5220	
COc1ccc2[nH]cc(/C=C3\Oc4ccc(NC(=O)Nc5cccnc5)cc4C3=O)c2c1 [Compound 484, 1-{(2Z)-2-[(5-methoxy-1H-indol-3-yl)methylene]-3-oxo-2,3-dihydro-1-benzofuran-5-yl}-3-pyridin-3-ylurea]	1660	> 10000	
COc1ccc2[nH]cc(/C=C3\Oc4ccc(NC(=O)Nc5ccccc5)cc4C3=O)c2c1 [Compound 485, 1-{(2Z)-2-[(5-methoxy-1H-indol-3-yl)methylene]-3-oxo-2,3-dihydro-1-benzofuran-5-yl}-3-phenylurea]	> 10000	> 10000	
Cc1ccc2c(c1)C(=O)/C(=C/c1c[nH]c3c(C)cccc13)S2 [Example 293, (2Z)-5-methyl-2-[(7-methyl-1H-indol-3-yl)methylene]-1-benzothiophen-3(2H)-one]	> 10000		
Cc1ccc2c(c1)C(=O)C(=Cc1c(-c3ccc(F)cc3)[nH]c3ccccc13)S2 [Example 297, 2-{[2-(4-fluorophenyl)-1H-indol-3-yl]methylene}-5-methyl-1-benzothiophen-3(2H)-one]	> 10000		
